Measurements from article PMC8495455, “Discovery of a transdermally deliverable pentapeptide for activating AdipoR1 to promote hair growth” (EMBO Molecular Medicine, 2021).

Columns and labels:
human DP cells = test: MTT cell proliferation assay, DP cells; type: cell-based; details: 48 h
Excerpt: To design transdermally deliverable AdipoR1 agonist, we further assessed the 15‐mer sequence by cutting it into several 5‐mer peptides (Fig EV1B) (Bos & Meinardi, [2000]). Based on the fact that AdipoRs are expressed in HF cells, including dermal papilla (DP) and outer root sheath (ORS) cells (Won et al, [2012]), we performed a cell proliferation assay on human DP and ORS cells to see if there is any potential biological effect of the 5‐mer peptides on the human HF cells.
Dermal papilla cells and ORS cells were seeded into a 96‐well plate (1.0 × 10^4 cells/well) with serum‐free culture media for 24 h and then treated with each candidate 5‐mer peptide (in 0.5 μg/ml or 5 μg/ml) for 48 h. After the addition of MTT solution (20 μl, 5 mg/ml) to each well, the cells were incubated for 4 h at 37°C in the dark room and then incubated with dimethyl sulfoxide (DMSO, 200 μl) for 20 min at room temperature. The samples were assessed by measuring the absorbance at 570 nm with an absorbance microplate reader (VersaMax).

Adipor1−/− mice = test: Mouse hair cycle modulation, hair cycle score, Adipor1−/− mice; type: in vivo; details: n = 5 mice/group, 35 days
Excerpt: To test whether the effect of P5 is mediated through AdipoR1 in vivo, we used Adipor1 ^−/− mice (Yamauchi et al, [2007]; Okada‐Iwabu et al, [2013]). […] Consistently, the anagen induction effects of P5 was abolished in the Adipor1 ^−/− mice (Fig 4I and J), in contrast to in WT mouse (Appendix Fig S2). […] Taken together, topical P5 treatment can accelerate hair growth through AdipoR1 in vivo.
For the hair cycle modulation experiment, Adipoq ^−/− (stock #008195; JAX) (Ma et al, [2002]), Adipor1 ^−/− (Yamauchi et al, [2007]; Okada‐Iwabu et al, [2013]), or C57BL/6 (KOATECH) female mice was used (Müller‐Röver et al, [2001]). They were housed (up to four animals per cage; 23 ± 2°C, 8:00–20:00, 12 h/12 h light/dark cycle). Mice were fed a standard chow diet and provided food and water ad libitum. Mice were randomly allocated and shaved dorsally at 7.5 weeks of age. […] The mouse hair growth score (a value from 0 to 100 based on the skin pigmentation and hair shaft density) was monitored and documented at designated days with the experimenters being blind to the conditions, following a previous study (Chai et al, [2019]). […] On day 35, we obtained dorsal cutaneous tissue for histological analysis: anagen induction scores (calculated using an assigned arbitrary score; telogen = 1, anagen I–VI = 2–7) (Müller‐Röver et al, [2001]). […]

Adipoq−/− mice = test: Mouse hair cycle modulation, histology and anagen induction score, Adipoq−/− mice; type: in vivo; details: Unpaired t-test
Excerpt: We also evaluated P5 effect in Adipoq ^−/− mouse (Ma et al, [2002]). […] Skin pigmentation was prominent in P5‐treated Adipoq ^−/− mice at day 14 (Fig 4E). […] At day 35, unlike vehicle‐treated Adipoq ^−/− mice showing little pigmentation, P5‐treated Adipoq ^−/− mice manifested hairs with pigmentation (Fig 4E). […] The DP cells in P5‐treated Adipoq ^−/− mice expressed versican (Fig 4G).
Paraffin‐embedded mouse cutaneous back tissue was sectioned (4 μm thickness) and stained with hematoxylin and eosin. […] IF intensity was observed and recorded with a Nikon Eclipse Ni‐E fluorescence microscope (Nikon).
For the hair cycle modulation experiment, Adipoq ^−/− (stock #008195; JAX) (Ma et al, [2002]), Adipor1 ^−/− (Yamauchi et al, [2007]; Okada‐Iwabu et al, [2013]), or C57BL/6 (KOATECH) female mice was used (Müller‐Röver et al, [2001]). […] The mouse hair growth score (a value from 0 to 100 based on the skin pigmentation and hair shaft density) was monitored and documented at designated days with the experimenters being blind to the conditions, following a previous study (Chai et al, [2019]). […] On day 35, we obtained dorsal cutaneous tissue for histological analysis: anagen induction scores (calculated using an assigned arbitrary score; telogen = 1, anagen I–VI = 2–7) (Müller‐Röver et al, [2001]).

GLYYF [P5, GST-fused (GST-P5) in pulldown assays]
Relative cell proliferation, DP (human DP cells; 0.5μg/ml, control = 1, replicate 1): 1.11
Relative cell proliferation, DP (human DP cells; 0.5μg/ml, control = 1, replicate 2): 1.117
Relative cell proliferation, DP (human DP cells; 0.5μg/ml, control = 1, replicate 3): 1.106
Relative cell proliferation, DP (human DP cells; 5μg/ml, control = 1, replicate 1): 1.094
Relative cell proliferation, DP (human DP cells; 5μg/ml, control = 1, replicate 2): 1.179
Relative cell proliferation, DP (human DP cells; 5μg/ml, control = 1, replicate 3): 1.068
Relative cell proliferation, DP (human DP cells; 5μg/ml, control = 1, replicate 4): 1.07
Relative cell proliferation, DP (human DP cells; 5μg/ml, control = 1, replicate 5): 1.01
Cell proliferative effect, DP cells (human DP cells; 0.5 or 5 μg/ml, Paired t-test vs control): significant cell proliferative effects
Anagen induction effects / hair cycle scores vs vehicle (Adipor1−/− mice): abolished
Anagen induction score vs vehicle (Adipoq−/− mice): significantly higher
